Measurements taken from PMC4102551, “Screening and Characterisation of Antimicrobial Properties of Semisynthetic Betulin Derivatives” (PLoS ONE, 2014).
≈ marks a conversion by molar mass, not a printed value. Where “and” joins values, the source holds several entries; their conditions need not be identical. Equal entries are not always repeated.

Legend:
[1] = test system: E. aerogenes ATCC 13048; experiment: Broth microdilution assay, E. aerogenes; format: cell-based, Enterobacter aerogenes; settings: for Inhibitory effect (%) E. aerogenes ATCC 13048: 50 µM, 24 h, inhibition of growth, mean ± SD
Experimental: (§1) Clinically used antimicrobial agents were selected based on international guidelines for antimicrobial testing and were utilised as reference compounds in the antimicrobial assays. The compounds were purchased from Sigma, Fluka and ICN Biomedicals. Stock solutions of the reference compounds were prepared either in double distilled sterile MilliQ water or in DMSO. Water solutions were sterilised through a 0.22 µm filter (VWR International). […] During the primary screening, these reference compounds were used as positive controls at the determined MIC on every plate.
(§2) Gram-negative strains Escherichia coli (ATCC 25922), Enterobacter aerogenes (ATCC 13048) and Pseudomonas aeruginosa (ATCC 27853), Gram-positive strains Staphylococcus aureus (ATCC 25923) and Enterococcus faecalis (ATCC 29212), and fungal strain Candida albicans (ATCC 90028) were obtained from Microbiologics Inc., and used for the antimicrobial screening. Strains were selected according to the guidelines set for clinical laboratories by Clinical and Laboratory Standards Institute [CLSI, formerly National Committee on Clinical Laboratory Standards [22]] and the European Committee on Antimicrobial Susceptibility Testing (EUCAST). Bacterial strains were grown on Mueller Hinton II Agar (MHA) (BBL, BD) and Mueller Hinton II broth (MHB) (BBL, BD), whereas Candida was initiated on Sabouraud Dextrose Agar (SDA) (Difco, BD) plates. Media were prepared into MilliQ water according to manufacturer’s instruction and autoclaved at 121°C for 15 min. Bacteria were plated on MHA plates and incubated at 37°C for 16–18 h. Bacterial suspension for the assays was prepared by subculturing the bacteria into MHB and by incubating at 37°C for 16–20 h at 110 rpm prior to the assay. Candida strain was grown on SDA plates at 27°C for 16–18 h and suspended into sterile 0.9% saline for the assay.
(§3) Antimicrobial screening assays were performed by broth microdilution method following the guidelines of CLSI and EUCAST. Bacterial suspensions were prepared as mentioned earlier and diluted with MHB to obtain a final inoculum of 5×10^5 colony-forming units (cfu)/mL in the assay for all the bacteria (based on OD620 values previously calibrated against plate counts). Candida suspension was prepared into sterile 0.9% saline solution as stated earlier. […] Assays were carried out in clear 96-well microtitre plates and initiated by dispensing an equal volume of microbial suspension and sample solution diluted into the assay medium into the wells. The plates were incubated for 24 h at 37°C (for Candida the incubation was at 35°C for 48 h) with agitation. Absorbance was measured at 620 nm with Victor plate reader (Wallac 1420, Perkin Elmer) at 0, 4 and 24 h with the bacteria, and at 0, 24 and 48 h with Candida. The antimicrobial activity of the samples was calculated from the absorbance values by comparing to the controls, and expressed as a percentage inhibition of growth. All the betulin derivatives were first assayed at the single concentration of 50 µM (two separate experiments, each with three replicates). […] The MIC90 value was expressed as the lowest concentration of compound that inhibited the microbial growth by >90%. The MIC90 results are means of three replicates from two separate experiments.

[2] = test system: E. coli ATCC 25922; experiment: Broth microdilution assay, E. coli; format: cell-based, Escherichia coli; settings: for Inhibitory effect (%) E. coli ATCC 25922: 50 µM, 24 h, inhibition of growth, mean ± SD
Experimental: as §1, §2, §3

[3] = test system: E. faecalis ATCC 29212; experiment: Broth microdilution assay, E. faecalis; format: cell-based, Enterococcus faecalis; settings: 50 µM, 24 h, inhibition of growth, mean ± SD
Experimental: as §1, §2, §3

[4] = test system: P. aeruginosa ATCC 27853; experiment: Broth microdilution assay, P. aeruginosa; format: cell-based, Pseudomonas aeruginosa; settings: for Inhibitory effect (%) P. aeruginosa ATCC 27853: 50 µM, 24 h, inhibition of growth, mean ± SD
Experimental: as §1, §2, §3

[5] = test system: S. aureus ATCC 25923; experiment: Broth microdilution assay, S. aureus; format: cell-based, Staphylococcus aureus; settings: 50 µM, 24 h, inhibition of growth, mean ± SD
Experimental: as §1, §2, §3

[6] = test system: C. albicans ATCC 90028; experiment: Broth microdilution assay, C. albicans; format: cell-based, Candida albicans; settings: for Inhibitory effect (%) C. albicans ATCC 90028: 50 µM, 48 h at 35°C, inhibition of growth, mean ± SD
Experimental: as §1, §2, §3

[7] = test system: Huh-7 cells; experiment: in vitro; format: cell-based, human; settings: 24 h exposure; for Cytotoxicity (%) Huh-7 cells: 50 µM, ATP content, 5% FBS
Experimental: Huh-7 cells (derived from human hepatocellular carcinoma) were obtained as a gift from Prof. Ralf Bartenschlager (University of Heidelberg, Germany) and used for assessing the cytotoxicity against mammalian cells. HL cells (a heteroploid cell line used for propagating respiratory viruses) were used as a host cell line in the host-pathogen co-culture assay. […] Both cell lines were cultured at 37°C, 5% CO2 and 95% humidity.
The effect of the betulin derivatives on metabolic activity of Huh-7 cells was evaluated by measuring the intracellular ATP content of the cells after 24 h exposure to the compounds. In brief, cells were seeded at 20000 cells/well on white-walled microplates (PerkinElmer) and incubated at 37°C, 5% CO2 and 95% humidity. After culturing the cells overnight, the medium was replaced with the assay media (5% FBS) containing the sample and the cells were incubated for 24 h. Polymyxin B sulphate (15000 IU/mL) was used as a positive control. Following the incubation period, Promega’s CellTiter-Glo Cell Viability Assay was used to determine the intracellular ATP levels according to the manufacturer’s instructions. Cells were washed with 100 µL 6.7 mM PBS, pH 7.4 and 50 µL of fresh assay media and 50 µL of the CellTiter-Glo reagent were added into the wells. After 2 min shaking, followed by 10 min incubation at RT, luminometric signal was measured using Varioskan Flash plate reader (Thermo Fisher Scientific).

[8] = lowest concentration inhibiting growth by >90%

Row | Compound | Inhibitory effect (%) E. aerogenes ATCC 13048 [1] [%] | Inhibitory effect (%) E. coli ATCC 25922 [2] [%] | Inhibitory effect (%) E. faecalis ATCC 29212 [3] | Inhibitory effect (%) P. aeruginosa ATCC 27853 [4] [%] | Inhibitory effect (%) S. aureus ATCC 25923 [5] [%] | Inhibitory effect (%) C. albicans ATCC 90028 [6] [%] | Cytotoxicity (%) Huh-7 cells [7] [%] | MIC90 of positive control, E. aerogenes [1, 8] | MIC90 of positive control, E. coli [2, 8] | MIC90 of positive control, P. aeruginosa [4, 8] | IC50 cytotoxicity Huh-7 cells (positive control) ([7]; ATP assay) [IU/mL] | MIC90 ([6]; Candida albicans, ATCC90028, lowest concentration inhibiting growth by >90%, read-out: MIC90 of positive control, C. albicans) [µg/mL]
1 | CC(C)C12CCC3(CO)CCC4(C)C(=C31)C(CC1C3(C)CCC(O)C(C)(C)C3CCC14C)n1c(=O)n(-c3ccccc3)c(=O)n12 (stereo not drawn) [Compound 44] | 11.7±1.1 | -1.0±0.3 | 57.1±7.1% | 3.3±1.1 | 5.7±2.2 | -25.4±8.0 | 2.8±5.3 | – | – | – | – | –
2 | CC(C)C12CCC3(COC(=O)C4CCCCC4)CCC4(C)C(=C31)C(CC1C3(C)CCC(OC(=O)C5CCCCC5)C(C)(C)C3CCC14C)n1c(=O)n(C)c(=O)n12 (stereo not drawn) [Compound 48] | 12.1±2.2 | -5.5±1.9 | 56.3±1.8% | 7.1±1.7 | 5.0±4.2 | -39.6±25.9 | -10.8±1.9 | – | – | – | – | –
3 | C=C(C)[C@@H]1CC[C@]2(COC(=O)C3C(C=C(C)C)C3(C)C)CC[C@]3(C)[C@H](CC[C@@H]4[C@@]5(C)CC[C@H](O)C(C)(C)[C@@H]5CC[C@]43C)[C@@H]12 (stereo partly drawn) [Compound 3, 28-O-chrysanthemoylbetulin] | 10.6±0.5 | 0.3±1.7 | 46.9±6.0% | 4.4±1.4 | -23.2±11 | 35.4±3.8 | -5.8±2.5 | – | – | – | – | –
4 | CC(C)C12CCC3(COC(=O)C4CCCCC4)CCC4(C)C(=C31)C(CC1C3(C)CCC(OC(=O)C5CCCCC5)C(C)(C)C3CCC14C)n1c(=O)n(C(C)(C)C)c(=O)n12 (stereo not drawn) [Compound 51] | 10.8±2.5 | -3.2±1.0 | 62.3±0.3% | 5.9±0.3 | 7.5±3.8 | -96.4±22.3 | -10.0±2.6 | – | – | – | – | –
5 | Gentamycin [reference compound] | – | – | – | – | – | – | – | (0.5 µg/mL) | (2 µg/mL) | (8 µg/mL) | – | –
6 | C=C(C)C1CCC2(C(=O)NC(CC(=O)O)C(=O)O)CCC3(C)C(CCC4C5(C)CCC(=O)C(C)(C)C5CCC43C)C12 [Compound 27, L-aspartyl amide of betulonic acid] | 9.3±1.0 | 3.1±4.6 | 38.2±15.5% | -1.2±0.4 | 12.7±3.3 | 44.2±3.8 | 10.9±1.3 | – | – | – | – | –
7 | C=C(C)[C@@H]1CC[C@]2(C#N)CC[C@]3(C)[C@H](CC[C@@H]4[C@@]5(C)CC[C@H](OC(C)=O)C(C)(C)[C@@H]5CC[C@]43C)[C@@H]12 [Compound 33] | 11.4±4.2 | -4.6±3.3 | 49% and 49.2±2.2% | 3.6±3.9 | 20.5±52.1 | -51.2±39.1 | 21.6±17.0 | – | – | – | – | –
8 | CC(=O)OCC12CCC3(C(C)C)C1=C1C(CC4C5(C)CCC(OC(C)=O)C(C)(C)C5CCC4(C)C1(C)CC2)n1c(=O)n(-c2cccc(Cl)c2)c(=O)n13 (stereo not drawn) [Compound 39] | 19.0±1.9 | 4.4±2.7 | 69.1±4.9% | 2.6±1.1 | 5.7±0.8 | 4.8±13.6 | 1.5±2.7 | – | – | – | – | –
9 | CC(=O)OCC12CCC3(C(C)C)C1=C1C(CC4C5(C)CCC(OC(C)=O)C(C)(C)C5CCC4(C)C1(C)CC2)n1c(=O)n(-c2ccccc2)c(=O)n13 (stereo not drawn) [Compound 41] | 18.6±5.6 | 7.1±1.0 | 52.4±7.2% | 1.3±0.4 | 12.7±1.6 | 15.0±14.3 | 1.3±4.4 | – | – | – | – | –
10 | COc1cccc(-n2c(=O)n3n(c2=O)C2(C(C)C)CCC4(COC(C)=O)CCC5(C)C(=C42)C3CC2C3(C)CCC(OC(C)=O)C(C)(C)C3CCC25C)c1 (stereo not drawn) [Compound 34] | 13.8±4.3 | 1.7±4.2 | 68.4±3.0% | 0.6±2.5 | 3.1±2.0 | -1.1±3.5 | 8.5±2.0 | – | – | – | – | –
11 | C=C(C)[C@@H]1CC[C@]2(C#N)CC[C@]3(C)[C@H](CC[C@@H]4[C@@]5(C)CCC(=NOC(C)=O)C(C)(C)[C@@H]5CC[C@]43C)[C@@H]12 [Compound 32] | 12.0±3.0 | 5.5±1.5 | 57% and 56.6±7.0% | 5.7±1.7 | 5.5±1.9 | -43.8±12.6 | -7.2±3.0 | – | – | – | – | –
12 | Polymyxin B sulphate [reference compound] | – | – | – | – | – | – | – | – | – | – | 9361 | –
13 | C[C@@H]1[C@H](O)[C@@H](C)/C=C/C=C/C=C/C=C/C=C/C=C/C=C/[C@H](O[C@@H]2O[C@H](C)[C@@H](O)[C@H](N)[C@@H]2O)C[C@@H]2O[C@](O)(C[C@@H](O)C[C@@H](O)[C@H](O)CC[C@@H](O)C[C@@H](O)CC(=O)O[C@H]1C)C[C@H](O)[C@H]2C(=O)O [Amphotericin B, reference compound] | – | – | – | – | – | – | – | – | – | – | – | 2 (≈ 2.16 µM)
14 | C=C(C)[C@@H]1CC[C@]2(C(=O)OC)CC[C@]3(C)[C@H](CC[C@@H]4[C@@]5(C)CCC(=O)C(C)(C)[C@@H]5CC[C@]43C)[C@@H]12 [Compound 25, methyl ester of betulonic acid] | 11.4±3.9 | -3.3±1.4 | – | 2.3±0.3 | 2.5±1.3 | -30.0±17.3 | 23.0±4.0 | – | – | – | – | –
